Among the data in paper PMC9995496, “A screen for MeCP2-TBL1 interaction inhibitors using a luminescence-based assay” (Scientific Reports, 2023) are Inhibition percent values, retold here.

The first assay concerns the target T1, MeCP2-TBL1 interaction (MeCP2-SmBiT / TBL1-LgBiT) (Mus musculus, UniProt Q9QXE7).
T1 construct: expressed in transfected cells; crude lysate used as a cell-free assay
T1 sequence (Q9QXE7 166-527): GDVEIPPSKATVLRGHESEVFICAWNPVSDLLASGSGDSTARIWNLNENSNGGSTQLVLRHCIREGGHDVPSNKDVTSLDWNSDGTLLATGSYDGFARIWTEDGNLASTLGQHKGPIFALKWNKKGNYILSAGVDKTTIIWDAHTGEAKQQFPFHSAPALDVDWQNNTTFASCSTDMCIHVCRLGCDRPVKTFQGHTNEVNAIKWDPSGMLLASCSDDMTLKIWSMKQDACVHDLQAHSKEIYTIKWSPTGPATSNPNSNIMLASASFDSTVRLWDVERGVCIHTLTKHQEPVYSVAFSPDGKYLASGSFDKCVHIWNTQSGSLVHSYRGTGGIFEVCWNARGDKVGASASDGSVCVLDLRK
The assay can be described thus: MeCP2-TBL1 NanoLuc luciferase complementation assay (cell-free, extracts of transfected HEK293 cells).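 Note: each compound tested at 20 µM final concentration.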 In kind it is binding, human. The following applies: primary screen of Asinex library, single well per compound. The essentials:
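Cell-free split NanoLuc: lysate of HEK293 cells co-expressing the MeCP2 C-terminal half-SmBiT and TBL1 WD domain-LgBiT, mixed 1:1 with furimazine. After 30 min at room temperature, luminescence was plate-median normalized.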
Regarding `CCn1cc(NC(=O)CN2[C@H]3CCCCC(=O)N[C@@]3(C)C[C@H]2c2cccc(C(F)(F)F)c2)c(C)n1` [BDH_33623667], the Inhibition percent is -2.55.
The same measure, in the same setting: for `CC(=O)N[C@@]12CN(C)CC[C@@H]1[C@@H](c1ccccc1)N(CC(=O)Nc1ccc(OC(F)F)cc1)C2` [BDH_33624452] the value was 0.21; for `Cc1cc(NC(=O)CN2[C@H]3CCCCCN[C@@]3(C)C[C@H]2c2ccccc2)nn1C` [BDH_33624483], -0.55.
Take `C[C@]12C[C@@H](Cc3ccccc3)N(CC(=O)NCc3ccccc3Cl)[C@H]1CCCC(=O)N2` [BDH_33626431]: the Inhibition percent is 6.92.
On the same count and under the same terms, for `C[C@]12C[C@@H](Cc3ccccc3)N(C(=O)CC3CCN(c4ncccn4)CC3)[C@H]1CCCC(=O)N2` [BDH_33627845] the value was -0.41; for `Cc1cc(O)cc(=O)n1CC(=O)N1CCCCC1C1CCN(C(=O)Cc2ccccc2F)CC1` (stereo not shown) [BDH_33628360], -0.67; for `O=C(NCCC1CCCCN1C(=O)CCN1C(=O)CCNC1=O)c1ccccc1` (stereo not shown) [BDH_33628607], 0.45.
Same read-out and setting: the result for `C[C@]12C[C@@H](Cc3ccccc3)N(C(=O)c3ccc(OCCN4CCCCC4)cc3)[C@H]1CCCC(=O)N2` [BDH_33629014] reads -1.82; that for `CN1C(=O)N(CC(=O)N2CCCCC2CCNC(=O)c2ccccc2)C(=O)C12CCCCC2` (stereo not shown) [BDH_33629465], 1.86.
The same measure, in the same setting: for `C[C@]12C[C@@H](c3cccc(C(F)(F)F)c3)N(C(=O)CCc3nc4ccccc4[nH]3)[C@H]1CCCCC(=O)N2` [BDH_33631539] the value was -2.28; for `O=C1CNC(=O)C2(C/C=C/C[C@H]3COCC[C@H]3N1)CCN(c1ncccn1)CC2` [BDH_33727647], -1.79.

Staying with this assay, now noted: primary screen of the Asinex library, sheet "Sargen output Asinex library", one well per compound.
For the compound `Cn1c(CNC(=O)CN2[C@H](Cc3ccccc3)C[C@]3(C)NC(=O)CCC[C@H]23)nc2ccccc21` [BDH_33623014], the Inhibition percent is -0.21%.
For the compound `COc1ccc([C@@H]2C[C@]3(C)NC(=O)CCC[C@@H]3N2CC(=O)NCc2nc3ccccc3n2C)cc1` [BDH_33623015], the Inhibition percent is listed as 0.43%.
Same read-out and setting: for `CCc1ccccc1NC(=O)CN1CC[C@@]2(NC(C)=O)CN(C(C)=O)[C@H](c3ccccc3)[C@H]2C1` [BDH_33623049] the value was -1.00%; for `CC(=O)N[C@H]1C[C@@H](C(=O)N(C)C)N(CC(=O)NCc2ccc3[nH]c(C)c(C)c3c2)[C@H]1c1ccccc1` [BDH_33623462], -0.84%; for `CCn1cc(NC(=O)CN2[C@H](Cc3ccccc3)C[C@]3(C)NC(=O)CCC[C@H]23)c(C)n1` [BDH_33623813], -1.65%.
Still for that read-out and setting: the result for `CC(=O)Nc1ccc(NC(=O)CN2[C@H](Cc3ccccc3)C[C@]3(C)NC(=O)CCC[C@H]23)c(Cl)c1` [BDH_33623952] reads 1.80%; that for `COc1cccc([C@@H]2C[C@]3(C)NC(=O)CCCC[C@@H]3N2CC(=O)Nc2ccc(OC(F)F)cc2)c1` [BDH_33624322], 7.98%; that for `CCc1ccc(NC(=O)CN2[C@H]3CCCCC(=O)N[C@@]3(C)C[C@H]2c2cccc(OC)c2)cc1` [BDH_33625442], 10.53%.
For `CC(=O)N[C@@]12CCN(CC(=O)Nc3ccc(C)c(F)c3)C[C@@H]1[C@@H](c1ccccc1)N(C(C)=O)C2` [BDH_33625631], the Inhibition percent was found to be 2.58%.
On the same count and under the same terms, for `Cc1ccc(NC(=O)c2cccc(C3CCCN3C(=O)CCCN3Cc4ccccc4C3)n2)nc1` (stereo not shown) [BDH_33628747] the value was -0.70%.
On the same count and under the same terms, for `CNc1nc(C2CCCCN2C(=O)CCNc2nc(C)cc(C)n2)nc2c1CCN(C(C)=O)C2` (stereo not shown) [BDH_33629184] the value was -0.36%.
Still for that read-out and setting: the result for `CC(C)c1nccn1CCC(=O)N1[C@H](Cc2ccccc2)C[C@]2(C)NC(=O)CCC[C@H]12` [BDH_33632337] reads 1.15%.
On to `COc1cccc([C@H]2C[C@@](C)(NC(=O)C(C)C)[C@@H]3CC[C@@H](C)C[C@H]3O2)c1OCCN(C)C` [BDH_33687810], for which the Inhibition percent is given as -1.87%.
Same read-out and setting: the result for `O=C1CNC(=O)C2(C/C=C/C[C@H]3COCC[C@H]3N1)CCN(C(=O)/C=C/c1ccccc1)CC2` [BDH_33728358] reads -2.28%; that for `O=C1CNC(=O)C2(C/C=C/C[C@H]3COCC[C@@H]3N1)CCN(C(=O)COc1ccccc1)CC2` [BDH_33728395], -3.47%.

The assay is the same for the next values; noted with them: primary screen of the Asinex library, sheet "Sargen output Asinex library", one well per compound, Batch Ref. 1.
Consider `COc1ccc([C@@H]2C[C@]3(C)NC(=O)CCC[C@@H]3N2CC(=O)NCc2ccc3[nH]c(C)c(C)c3c2)cc1` [BDH_33623525], for which the Inhibition percent is reported as -0.10%.
Same read-out and setting: the result for `COc1ccc([C@@H]2C[C@]3(C)NC(=O)CCC[C@@H]3N2CC(=O)Nc2ccc(OC(F)F)cc2)cc1` [BDH_33624459] reads -1.08%; that for `COc1cccc([C@@H]2C[C@]3(C)NC(=O)CCCC[C@@H]3N2CC(=O)Nc2cc(C)n(C)n2)c1` [BDH_33624491], -2.56%.
With `Cc1ccc(NC(=O)CN2[C@H](Cc3ccccc3)C[C@]3(C)NC(=O)CCC[C@H]23)cc1F` [BDH_33625782], the Inhibition percent amounted to 10.91%.
The same measure, in the same setting: the result for `COc1ccc([C@@H]2C[C@]3(C)NC(=O)CCC[C@@H]3N2CC(=O)Nc2ccc(C)c(F)c2)cc1` [BDH_33625783] reads 2.77%.
For the compound `COc1ccc(C)cc1NC(=O)CN1CC[C@@]2(NC(C)=O)CN(C(C)=O)[C@H](c3ccccc3)[C@H]2C1` [BDH_33625816], the Inhibition percent was determined as 0.56%.
Still for that read-out and setting: for `CC(=O)N[C@@]12CCN(CC(=O)Nc3cccc(F)c3)C[C@@H]1[C@@H](c1ccccc1)N(C(C)=O)C2` [BDH_33625995] the value was -1.85%.
The same measure, in the same setting: for `COc1ccc([C@@H]2C[C@]3(C)NC(=O)CCC[C@@H]3N2CC(=O)Nc2cccc(F)c2)cc1` [BDH_33626152] the value was -3.72%.
Same read-out and setting: for `CC(=O)N[C@H]1C[C@@H](C(=O)N(C)C)N(CC(=O)NCc2ccccc2Cl)[C@H]1c1ccccc1` [BDH_33626360] the value was 0.20%.
With `COc1ccc(NC(=O)CN2[C@H]3CCCCC(=O)N[C@@]3(C)C[C@H]2c2cccc(OC)c2)cc1` [BDH_33626569], the Inhibition percent is listed as -0.22%.
In the case of `COc1ccc(NC(=O)CN2CC[C@@]3(NC(C)=O)CN(C(C)=O)[C@H](c4ccccc4)[C@H]3C2)cc1` [BDH_33626570], the Inhibition percent is -3.55%.
Still for that read-out and setting: the result for `Nc1ncc(-c2cccc(C(F)(F)F)c2)c(C2CCCCN2C(=O)CCNC(=O)c2cccnc2)n1` (stereo not shown) [BDH_33627369] reads 1.39%; that for `C[C@]12C[C@@H](Cc3ccccc3)N(C(=O)CCN3C(=O)CCCC3=O)[C@H]1CCCC(=O)N2` [BDH_33628122], 1.89%.
Still for that read-out and setting: the result for `Nc1ncc(-c2cccc(C(F)(F)F)c2)c(C2CCCCN2C(=O)CCN2C(=O)CCNC2=O)n1` (stereo not shown) [BDH_33628597] reads 2.35%; that for `Cn1c(=O)c2c(ncn2CCC(=O)N2[C@H](Cc3ccccc3)C[C@]3(C)NC(=O)CCC[C@H]23)n(C)c1=O` [BDH_33628646], 0.10%; that for `Cn1c(=O)n(C)c2cc(CCC(=O)N3CCCCC3CCNC(=O)c3ccccc3)ccc21` (stereo not shown) [BDH_33628839], -0.76%.
Same read-out and setting: the result for `Cc1cc(O)cc(=O)n1CCC(=O)N1CCCCC1C1CCN(C(=O)Cc2ccccc2F)CC1` (stereo not shown) [BDH_33629102] reads -1.24%; that for `CNC(=O)c1sc2nc(C3CCCCN3C(=O)CCCNc3ncccn3)ccc2c1N` (stereo not shown) [BDH_33629130], -2.07%; that for `O=C(NCCC1CCCCN1C(=O)CCN1C(=O)COc2ccc(Cl)cc21)c1ccccc1` (stereo not shown) [BDH_33629495], -0.39%.
As to `C[C@]12C[C@@H](Cc3ccccc3)N(C(=O)c3ccc(OCCN4CCCC4)cc3)[C@H]1CCCC(=O)N2` [BDH_33629575], the Inhibition percent is on record as -1.81%.
Same read-out and setting: for `C[C@]12C[C@@H](Cc3ccccc3)N(C(=O)C3CCN(Cc4cccnc4)CC3)[C@H]1CCCC(=O)N2` [BDH_33630330] the value was -0.000826%; for `CC(=O)N1CCCCC[C@@H]2[C@@H]1C[C@@H](Cc1ccccc1)N2C(=O)c1cccc(Cn2cncn2)c1` [BDH_33630828], -0.42%.
Still for that read-out and setting: the result for `C[C@]12C[C@@H](Cc3ccccc3)N(C(=O)c3ccc(NCc4cccnc4)cc3)[C@H]1CCCC(=O)N2` [BDH_33630910] reads 7.42%; that for `Cc1cc2ncn(CCC(=O)N3[C@H](Cc4ccccc4)C[C@]4(C)NC(=O)CCC[C@H]34)c2cc1C` [BDH_33631266], -1.89%; that for `O=C(NCCC1CCCCN1C(=O)CCn1cnc2ccccc21)c1ccccc1` (stereo not shown) [BDH_33631954], -1.65%.
Same read-out and setting: the result for `COc1cc2c(cc1[C@H]1C[C@@H](NC(C)=O)CC3(CCCCC3)O1)OCCCO2` [BDH_33665894] reads 2.60%; that for `CC(C)(O)[C@@H]1CC[C@](C)([C@H]2CC3(CCN(C(=O)c4ccc(-c5ccc(S(C)(=O)=O)cc5)cc4)CC3)CO2)O1` [BDH_33696510], 0.0118%; that for `COc1cccc(CN2CCC3(C/C=C/COc4ccccc4C(=O)NCCNC3=O)CC2)c1F` [BDH_33701964], -0.89%.
`O=C1NCCNC(=O)C2(C/C=C/COc3ccccc31)CCN(C(=O)CCc1cccs1)CC2` [BDH_33701979]: the Inhibition percent is on record as 4.94%.
